Data reported in US9388175B2, “2-aniline-4-aryl substituted thiazole derivatives” (Janssen Pharmaceutica N.V., priority 2005, dated 2016).

How the values were obtained:
[1] = target: T1, hα7-wt nAChR stably expressed in the GH4C1 cell line (Homo sapiens, UniProt P36544); assay: Ca2+ flux imaging (FLIPR) of PAM activity with choline as agonist; type: cell-based; conditions: efficacy relative to 100 μM choline alone (defined as 1); peak fluorescence, fluo-4AM; compounds tested 0.1 μM to 30 μM, efficacy criterion at 10 μM
T1 construct: expressed in transfected cells
T1 sequence (P36544 23-502): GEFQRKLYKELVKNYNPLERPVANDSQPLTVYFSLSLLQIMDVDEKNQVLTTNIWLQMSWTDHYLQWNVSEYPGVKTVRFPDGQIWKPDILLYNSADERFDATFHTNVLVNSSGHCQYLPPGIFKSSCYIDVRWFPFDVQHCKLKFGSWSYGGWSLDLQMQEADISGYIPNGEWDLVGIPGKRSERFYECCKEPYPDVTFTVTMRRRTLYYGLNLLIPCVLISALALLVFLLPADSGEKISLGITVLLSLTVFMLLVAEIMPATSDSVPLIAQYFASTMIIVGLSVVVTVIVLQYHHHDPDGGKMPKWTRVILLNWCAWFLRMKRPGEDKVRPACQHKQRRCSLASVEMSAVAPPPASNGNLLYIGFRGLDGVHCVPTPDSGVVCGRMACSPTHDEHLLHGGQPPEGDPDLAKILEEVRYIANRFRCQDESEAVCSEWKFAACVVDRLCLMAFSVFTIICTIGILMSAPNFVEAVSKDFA

| Compound | melting point [°C] | Activity Range [1] |
| --- | --- | --- |
| CS(=O)(=O)NCc1sc(Nc2cccc(C(F)(F)F)c2)nc1-c1cccnc1 [Compound 109] | 213.6 to 219.8 | E (E denotes an efficacy from at least 4.5) |
| COc1ccc(Nc2nc(-c3ccncc3)c(CO)s2)cc1 [Compound 122, 2-[(4-methoxyphenyl)amino]-4-(4-pyridinyl)-5-thiazolemethanol] | 126.2 to 126.8 | E (E denotes an efficacy from at least 4.5) |
| Cc1cc(Nc2nc(-c3ccc(Cl)nc3)cs2)ccc1F [Compound 2] | 175 | D (D denotes an activity range from 3.0 till 4.5) |
| OCc1sc(Nc2cc(Cl)ccc2Cl)nc1-c1ccccc1 [int. 23] | 172.8 to 175 | D (D denotes an activity range from 3.0 till 4.5) |
| CNC(=O)Cc1sc(Nc2cc(Cl)ccc2Cl)nc1-c1ccncc1 [Compound 163] | 237.2 to 244 | E (E denotes an efficacy from at least 4.5) |
| CCOC(=O)Cc1sc(Nc2cc(Cl)ccc2Cl)nc1-c1ccncc1 [int. 30] | 156.8 to 163.5 | E (E denotes an efficacy from at least 4.5) |
